Target: GLP1R (Homo sapiens, UniProt P43220)
Assay: GLP1R cAMP HTRF assay, HEK293/GLP-1R/CRE/Luc (HEK293T cells)
Type: cell-based
Conditions: concentration yielding 50% of the maximum cAMP level of the same compound
Procedure: GLP-1R-mediated agonist activity was determined with a cell-based functional assay utilizing an HTRF (Homogeneous Time-Resolved Fluorescence) cAMP detection kit (cAMP Dynamic 2 Assay Kit; CisBio cat #62AM4PEC) that measures cAMP levels in the cell. The method is a competitive immunoassay between native cAMP produced by the cells and exogenous cAMP labeled with the dye d2. The tracer binding is visualized by a mAb anti-cAMP labeled with Cryptate. The specific signal (i.e., energy transfer) is inversely proportional to the concentration of cAMP in either standard or experimental sample.
A cell line stably expressing the receptor was isolated. […]
IBMX and BSA were freshly added on the day of assay]. A 10 μL sample of the cell suspension was counted on an Invitrogen Countess II to determine cell viability and cell count per mL. […]
Following the 30 minute incubation, 5 μL of labeled d2 cAMP and 5 μL of anti-cAMP antibody (both diluted 1:20 in cell lysis buffer; as described in the manufacturer's assay protocol) were added to each well of the assay plate. […] Raw data were converted to nM cAMP by interpolation from a cAMP standard curve (as described in the manufacturer's assay protocol) and the percent effect was determined relative to a saturating concentration of the full agonist GLP-17-37 (10 nM) included on each plate. […]

Sequence of GLP1R (P43220 24-463): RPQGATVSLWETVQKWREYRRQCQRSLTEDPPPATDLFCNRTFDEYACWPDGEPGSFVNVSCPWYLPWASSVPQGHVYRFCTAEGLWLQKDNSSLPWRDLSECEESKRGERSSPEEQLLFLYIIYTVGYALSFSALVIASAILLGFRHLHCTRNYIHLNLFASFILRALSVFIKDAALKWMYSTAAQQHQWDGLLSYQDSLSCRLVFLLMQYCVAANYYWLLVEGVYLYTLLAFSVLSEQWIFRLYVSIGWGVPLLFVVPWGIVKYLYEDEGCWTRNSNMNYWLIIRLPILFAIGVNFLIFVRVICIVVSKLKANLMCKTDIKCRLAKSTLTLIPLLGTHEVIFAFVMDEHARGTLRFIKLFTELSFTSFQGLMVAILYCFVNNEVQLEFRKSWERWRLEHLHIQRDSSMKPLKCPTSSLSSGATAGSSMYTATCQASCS

EC50: ≤ 150 nM
SMILES: N#Cc1ccc(COc2cc(F)cc(C3=CCN(Cc4nc5ccc(C(=O)O)cc5n4C[C@@H]4CCO4)CC3)c2)c(F)c1 [Compound 218, (S)-2-((4-(3-((4-cyano-2-fluorobenzyl)oxy)-5-fluorophenyl)-5,6-dihydropyridin-1(2H)-yl)methyl)-1-(oxetan-2-ylmethyl)-1H-benzo[d]imidazole-6-carboxylic acid]
